Key:
[1] = tested on: human keratinocytes NCTC2544; experiment: MTT assay with induced oxidative stress (H2O2); format: cell-based; settings: 16 h pretreatment, then 1 mM H2O2, NCTC2544
Protocol: (§1) The immortalized line of human keratinocytes NCTC2544 is used (Perry V. P. et al., 1957), cultured in sterile flasks ([…]), incubated at 37° C. in a humid atmosphere at 5% CO2 in RPMI culture medium added with bovine fetal serum (FBS), 2 mm glutamine, 1% non-essential amino acids, in the presence of 1% penicillin and streptomycin. The 1:3 split is done every 2 days upon achieving the monolayer by washing with 1×PBS (phosphate buffer without Ca^2+ and Mg^2+) and detachment of cells with a trypsin-EDTA solution at 37° C. for 2 minutes. The cells were kept in culture in 25 cm^3 sterile flasks and incubated at 37° C. in a humid atmosphere at 5% CO2.
(§2) Negative control: untreated cells in RPMI medium added to 2.5% fetal bovine serum (FBS), 1% non-essential amino acids (NEAA), 1% of a penicillin and streptomycin mixture (Pen-Strep Mix), and kept in (96 well) 25 cm^2 culture plates at 37° C. and 5% CO2 (in the dark).
as §2, with “Positive” for “Negative”, “control:” for “control: untreated”, “cells treated for 2 h with 1 mM hydrogen peroxide” for “cells”
MTT with Induced Oxidative Stress-NCTC 2544
Through this method it is possible to study the protective effects of such compounds on cells then subjected to oxidative stress. The induction of oxidative stress is carried out by incubation with hydrogen peroxide, an agent inducing the production of oxidative damage in cells through the formation of ROS. Any protective effects can be determined through the evaluation of the cell viability post oxidative stress of cells pretreated/pre-exposed to the active compounds to be tested, compared to cells subjected to the same oxidative stress. A greater cell viability will correspond to a protective effect of the compounds tested.
The assay was conducted in accordance with the method described by Coda and collaborators (Coda et al., 2012), with some changes. Human keratinocytes NCTC2544 were seeded in a 96-well plate at the density of 5*10^4 cells/well and incubated at 37° C. until reaching about 80% confluence.
Then, the cells were incubated for 16 hours with the active compounds to be tested and the respective controls at the following concentrations: 13.5 μM and 27 μM. The dilutions were prepared starting from 1000× stock in DMSO, sterile-filtered and using RPMI medium added to 2.5% fetal bovine serum (FBS), 1% non-essential amino acids (NEAA), 1% of a penicillin and streptomycin mixture (Pen-Strep Mix). Cells treated with H2O2 1 mM were used as a positive control; cells kept in culture medium alone (RPMI 2.5% FCS) were used instead as a negative control. After 16 hours of pretreatment, the cells were washed with PBS 1× and incubated for 90 minutes with a […] H2O2 solution (Sigma-Aldrich, St. Louis, Mo., USA) in serum-free medium, in the dark, at 37° C. and 5% CO2.
After the step of induction of the oxidative stress, the cell viability of the samples of the above compounds of the invention was evaluated in accordance with the method described by Mosmann T. Rapid colorimetric assay for cellular growth and survival: application to proliferation and cytotoxicity assays. J Immunol Methods. 1983 Dec. 16; 65(1-2):55-63.
The data were expressed as percentage of cell viability compared with control cells (ctr) not stressed, according to the following formula: % cell viability/ctr=(Abs sample/Abs ctr)·100
All the assays were performed at least two times in duplicate.

TNF-α = experiment: Anti-inflammatory activity: TNF-α gene expression by qRT-PCR in LPS-treated keratinocytes; format: cell-based, human; settings: for TNF-α (relative gene expression): 10 μg/ml LPS, NCTC 2544; for Comparison vs LFS (%): TNF-α vs Control + LPS
Protocol: as §1
Negative control: untreated cells in RPMI medium added to 2.5% fetal bovine serum (FBS), 1% non-essential amino acids (NEAA), 1% of a penicillin and streptomycin mixture (Pen-Strep Mix), and kept in (12 well) 25 cm^2 culture plates at 37° C. and 5% CO2.
Positive control: cells in RPMI medium added to 2.5% fetal bovine serum (FBS), 1% non-essential amino acids (NEAA), 1% of a penicillin and streptomycin mixture (Pen-Strep Mix) and 10 μg/mL LPS (lipopolysaccharide) and kept in ([…]) 25 cm^2 culture plates at 37° C. and 5% CO2 (in the dark).
Study of the Anti-inflammatory Activity-NCTC 2544
The gene expression of the TNF-α inflammation marker was evaluated by relative quantitative RT-PCR (quantitative reverse transcription-polymerase chain reaction-qRT-PCR).
This assay involved three sequential steps: • extraction of total RNA; • retrotranscription in cDNA; • qRT-PCR.
Human keratinocytes NCTC 2544 were seeded in 12-well plates at the density of […] cells/well and incubated until reaching about 80% confluence.
Then, the cells were incubated for 16 and 24 hours with the compounds of the invention to be tested and the respective controls at the following concentrations: 13.5 μM and 27 μM, and admixed (in the well) with 10 μg/ml LPS.
The dilutions were prepared starting from 1000× stock in DMSO, sterile-filtered and using RPMI medium added to 2.5% fetal bovine serum (FBS), 1% non-essential amino acids (NEAA), 1% of a penicillin and streptomycin mixture (Pen-Strep Mix).
Cells kept in the culture medium alone (RPMI 2.5% FBS) were used as a negative control.
Cells in the culture medium alone (RPMI 2.5% FBS) and treated only with 10 μg/mL LPS were used as a positive control.
After incubation, the RNA was extracted. Total RNA was extracted from NCTC 2544 cells using the commercial kit Ribospin™ (GeneAllBiotechnology Co., LTD).
At the end of incubation with the active compounds of the invention, cells were washed with PBS (1×) and finally subjected to RNA extraction procedure. At the end of the extraction, using a spectrophotometer (Jenway UV/VIS MOD: 6715, BS-6715B0), concentrations were calculated in μg/mL of total RNA extracted at a wavelength of 260 nm.
For RT-PCR amplification, the TaqMan® probe (AppliedBiosystems) method was used. The following TYaqMan probe was used: Hs00174128_m1 (TNF-α). GAPDH: Hs99999905_m1 was used as control gene (housekeeping).
The data obtained were analyzed according to the method of 2-ΔΔCt and so it was possible to calculate the relative values of expression of the gene of interest, normalized compared to the housekeeping gene and calibrated on the control sample (untreated cells): ΔCt=ΔCttarget-housekeeping (control)−ΔCttarget-housekeeping (treated cells)
The 2^−ΔΔCt was calculated assuming an amplification efficiency of 100%.

Structure (SMILES)	% protection ([1]; 13.5 μM) [%]	% protection ([1]; 27 μM) [%]	TNF-α (relative gene expression) (TNF-α; 13.5 μM, 16 h)	Comparison vs LFS (%) (TNF-α; 13.5 μM, 16 h)	TNF-α (relative gene expression) (TNF-α; 13.5 μM, 24 h)	Comparison vs LFS (%) (TNF-α; 13.5 μM, 24 h)	TNF-α (relative gene expression) (TNF-α; 27 μM, 16 h)	Comparison vs LFS (%) (TNF-α; 27 μM, 16 h)	TNF-α (relative gene expression) (TNF-α; 27 μM, 24 h)	Comparison vs LFS (%) (TNF-α; 27 μM, 24 h)	anti-inflammatory activity (TNF-α), assessment in words (TNF-α; higher dose)	% protection ([1]; 13.5 μM, listed as xylitil furfural)	anti-inflammatory activity (TNF-α), assessment in words (TNF-α; lower dose)	% protection ([1]; 27 μM, listed as tetracetyl sorbityl furfural)
OCC(O)C1OC(c2ccccc2)OC(CO)C1O (stereo not shown) [Sorbityl benzal, sorbityl benzal]	11.673	20.439	0.39	87.93	0.71	96.50	0.08	97.62	0.01	99.97	particularly significant			
O=C(OCC1OC(c2ccco2)OC(C(COC(=O)c2ccccc2)OC(=O)c2ccccc2)C1OC(=O)c1ccccc1)c1ccccc1 (stereo not shown) [Tetrabenzoyl sorbityl furfural, tetrabenzoyl sorbityl furfural]	36.035	8.725	0.63	80.28	2.51	87.69	0.45	85.81	0.28	98.63				
OCC1OC(c2ccco2)OC(CO)C1O (stereo not shown) [Xylitil furfural, xylitil furfural]	59.554	33.651	0.03	98.96	0.03	99.85	0.18	94.37	0.18	99.10		remarkable	remarkable	
COc1cc(C2OC(CO)C(O)C(C(O)CO)O2)ccc1O (stereo not shown) [Sorbityl vanillinal, sorbityl vanillinal]	11.320	22.766	0.04	98.64	0.09	99.57	0.15	95.44	0.21	98.95			remarkable	
CC(=O)OCC1OC(c2ccco2)OC(C(COC(C)=O)OC(C)=O)C1OC(C)=O (stereo not shown) [Tetracetyl sorbityl furfural, tetracetyl sorbityl furfural]	34.385	49.201	0.35	89.06	5.75	71.78	0.28	91.18	0.12	99.39				remarkable
